Results: patent US6472348B1, “Pyridone derivatives and herbicides” (Kumiai Chemical Industry Co., Ltd., priority 1996, dated 2002)

Legend:
Format in all cases: in vivo
barnyardgrass (Ec) [1] = assay: Test Example 1: herbicidal effects by paddy field soil treatment; conditions: 100 g of the active ingredient per 10 ares, 21st day after the application, index 0-5 of Table 47;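 note: grade of growth control; 5 = at least 90%; 4 = 70 to 90%; 3 = 50 to 70%; 2 = 30 to 50%; 1 = 10 to 30%; 0 = under 10%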
Summary of the method: (§1)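 Herbicidal effect was scored against a graded standard 21 days after treatment. Seeds were sown in puddled, leveled paddy soil flooded to 3 cm depth, and the active ingredient was applied at 100 g per 10 ares before greenhouse culture.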

bulrush (Sc) = assay: as above; conditions: 100 g of the active ingredient per 10 ares, 21st day after the application, index 0-5 of Table 47;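 note: grade of growth control; 5 = at least 90%; 4 = 70 to 90%; 3 = 50 to 70%; 2 = 30 to 50%; 1 = 10 to 30%; 0 = under 10%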
Summary of the method: as §1

monochoria (Mo) = assay: as above; conditions: 100 g of the active ingredient per 10 ares, 21st day after the application, index 0-5 of Table 47;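 note: grade of growth control; 5 = at least 90%; 4 = 70 to 90%; 3 = 50 to 70%; 2 = 30 to 50%; 1 = 10 to 30%; 0 = under 10%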
Summary of the method: as §1

Digitaria ciliaris (Di) = assay: Test Example 2: herbicidal effects by upland field soil treatment; conditions: 100 g of the active ingredient per 10 ares, evaluated on the 21st day after application;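 note: grade of growth control; 5 = at least 90%; 4 = 70 to 90%; 3 = 50 to 70%; 2 = 30 to 50%; 1 = 10 to 30%; 0 = under 10%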
Excerpt: (§2) (Test on Herbicidal Effects by Upland Field Soil Treatment)

barnyardgrass (Ec) [2] = assay: as above; conditions: 100 g of the active ingredient per 10 ares, evaluated on the 21st day after application
Excerpt: as §2

[3] = test system: common lambsquarters (Ch); assay: as above; conditions: 100 g of the active ingredient per 10 ares, evaluated on the 21st day after application
Excerpt: as §2

pale smartweed (Po) [4] = assay: as above; conditions: 100 g of the active ingredient per 10 ares, evaluated on the 21st day after application
Excerpt: as §2

rice flatsedge (Ci) [5] = assay: as above; conditions: 100 g of the active ingredient per 10 ares, evaluated on the 21st day after application
Excerpt: as §2

slender amaranth (Am) [6] = assay: as above; conditions: 100 g of the active ingredient per 10 ares, evaluated on the 21st day after application
Excerpt: as §2

Diaitaria ciliaris (Di) = assay: Test Example 3: herbicidal effects by upland field foliage treatment; design: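 grade of growth control; 5 = at least 90%; 4 = 70 to 90%; 3 = 50 to 70%; 2 = 30 to 50%; 1 = 10 to 30%; 0 = under 10%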; conditions: 100 g active ingredient per 10 ares, evaluated 14th day after treatment
Summary of the method: (§3)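 Using plants cultured for 2 weeks in a greenhouse from seed sown in soil-covered sand (pots 120 cm^2), the compounds were applied to foliage, and weed control was graded by standard criteria 14 days thereafter.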

barnyardgrass (Ec) [7] = assay: as above; design: scale not given here; conditions: 100 g active ingredient per 10 ares, evaluated 14th day after treatment
Summary of the method: as §3

[8] = test system: common lambsquarters (Ch); assay: as above; design: scale not given here; conditions: 100 g active ingredient per 10 ares, evaluated 14th day after treatment
Summary of the method: as §3

pale smartweed (Po) [9] = assay: as above; design: scale not given here; conditions: 100 g active ingredient per 10 ares, evaluated 14th day after treatment
Summary of the method: as §3

rice flatsedge (Ci) [10] = assay: as above; design: scale not given here; conditions: 100 g active ingredient per 10 ares, evaluated 14th day after treatment
Summary of the method: as §3

slender amaranth (Am) [11] = assay: as above; design: scale not given here; conditions: 100 g active ingredient per 10 ares, evaluated 14th day after treatment
Summary of the method: as §3

cotton (Go) = assay: Test Example 4: crop plant selectivity by upland field soil treatment (cotton), phytotoxicity; design: scale not given here; conditions: dose 6.3 g ai/10 a, evaluated 21st day after application
Summary of the method: (§4)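 Upland soil treatment: crop and weed seeds in sand pots under a soil cover, compound applied to soil, greenhouse-grown, rated visually 21 d later.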

China jute (Ab) [12] = assay: Test Example 4: crop plant selectivity by upland field soil treatment (cotton), herbicidal effects; design: scale not given here; conditions: dose 6.3 g ai/10 a, evaluated 21st day after application
Summary of the method: as §4

[13] = test system: common lambsquarters (Ch); assay: as above; design: scale not given here; conditions: dose 6.3 g ai/10 a, evaluated 21st day after application
Summary of the method: as §4

green foxtail (Se) [14] = assay: as above; design: scale not given here; conditions: dose 6.3 g ai/10 a, evaluated 21st day after application
Summary of the method: as §4

pale smartweed (Po) [15] = assay: as above; design: scale not given here; conditions: dose 6.3 g ai/10 a, evaluated 21st day after application
Summary of the method: as §4

slender amaranth (Am) [16] = assay: as above; design: scale not given here; conditions: dose 6.3 g ai/10 a, evaluated 21st day after application
Summary of the method: as §4

wheat (Tr) = assay: Test Example 5: crop plant selectivity by upland field soil treatment (wheat), phytotoxicity; design: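 grade of crop injury; 5 = at least 90%; 4 = 70 to 90%; 3 = 50 to 70%; 2 = 30 to 50%; 1 = 10 to 30%; 0 = under 10%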; conditions: dose 6.3 g ai/10a, 21st day after application
Summary of the method: (§5)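 Upland soil-treatment selectivity test: crop and weed seeds are sown together in sand-filled pots, soil-covered, then treated and grown under glass until rating at 21 days.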

China jute (Ab) [17] = assay: Test Example 5: crop plant selectivity by upland field soil treatment (wheat), herbicidal effects; design: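 grade of growth control; 5 = at least 90%; 4 = 70 to 90%; 3 = 50 to 70%; 2 = 30 to 50%; 1 = 10 to 30%; 0 = under 10%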; conditions: dose 6.3 g ai/10a, 21st day after application
Summary of the method: as §5

[18] = test system: common lambsquarters (Ch); assay: as above; design: scale not given here; conditions: dose 6.3 g ai/10a, 21st day after application
Summary of the method: as §5

green foxtail (Se) [19] = assay: as above; design: scale not given here; conditions: dose 6.3 g ai/10a, 21st day after application
Summary of the method: as §5

pale smartweed (Po) [20] = assay: as above; design: scale not given here; conditions: dose 6.3 g ai/10a, 21st day after application
Summary of the method: as §5

slender amaranth (Am) [21] = assay: as above; design: scale not given here; conditions: dose 6.3 g ai/10a, 21st day after application
Summary of the method: as §5

soybean (Gl) = assay: Test Example 6: crop plant selectivity by upland field soil treatment (soybean), phytotoxicity; design: scale not given here; conditions: dose 6.3 g ai/10a, 21st day after application
Summary of the method: (§6)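 Soybean and weed seeds were sown in sand-filled pots and covered with soil, then given a pre-emergence soil application. Plants were grown on in a greenhouse, and herbicidal effect and crop phytotoxicity were scored against a set rating scale 21 days after application.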

China jute (Ab) [22] = assay: Test Example 6: crop plant selectivity by upland field soil treatment (soybean), herbicidal effects; design: scale not given here; conditions: dose 6.3 g ai/10a, 21st day after application
Summary of the method: as §6

[23] = test system: common lambsquarters (Ch); assay: as above; design: scale not given here; conditions: dose 6.3 g ai/10a, 21st day after application
Summary of the method: as §6

green foxtail (Se) [24] = assay: as above; design: scale not given here; conditions: dose 6.3 g ai/10a, 21st day after application
Summary of the method: as §6

pale smartweed (Po) [25] = assay: as above; design: scale not given here; conditions: dose 6.3 g ai/10a, 21st day after application
Summary of the method: as §6

slender amaranth (Am) [26] = assay: as above; design: scale not given here; conditions: dose 6.3 g ai/10a, 21st day after application
Summary of the method: as §6

corn (Ze) = assay: Test Example 7: crop plant selectivity by upland field soil treatment (corn), phytotoxicity; design: scale not given here; conditions: dose 6.3 g ai/10a, 21st day after application
Summary of the method: (§7)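 Greenhouse pot test in sand with soil cover over seeds of corn and weeds sown together; scored 21 d after treatment.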

China jute (Ab) [27] = assay: Test Example 7: crop plant selectivity by upland field soil treatment (corn), herbicidal effects; design: scale not given here; conditions: dose 6.3 g ai/10a, 21st day after application
Summary of the method: as §7

[28] = test system: common lambsquarters (Ch); assay: as above; design: scale not given here; conditions: dose 6.3 g ai/10a, 21st day after application
Summary of the method: as §7

green foxtail (Se) [29] = assay: as above; design: scale not given here; conditions: dose 6.3 g ai/10a, 21st day after application
Summary of the method: as §7

pale smartweed (Po) [30] = assay: as above; design: scale not given here; conditions: dose 6.3 g ai/10a, 21st day after application
Summary of the method: as §7

slender amaranth (Am) [31] = assay: as above; design: scale not given here; conditions: dose 6.3 g ai/10a, 21st day after application
Summary of the method: as §7

SMILES: CON=C(C)c1cc(-c2ccc(C(F)(F)F)n(C)c2=O)c(F)cc1Cl [Compound 1-192]
- Herbicidal effects Ec (barnyardgrass (Ec) [1]): 5
- Herbicidal effects Sc (bulrush (Sc)): 5
- Herbicidal effects Mo (monochoria (Mo)): 5
- Herbicidal effects Di (Digitaria ciliaris (Di)): 5
- Herbicidal effects Ec (barnyardgrass (Ec) [2]): 5
- Herbicidal effects Ch [3]: 5
- Herbicidal effects Po (pale smartweed (Po) [4]): 5
- Herbicidal effects Ci (rice flatsedge (Ci) [5]): 5
- Herbicidal effects Am (slender amaranth (Am) [6]): 5
- Herbicidal effects Di (Diaitaria ciliaris (Di)): 5
- Herbicidal effects Ec (barnyardgrass (Ec) [7]): 5
- Herbicidal effects Ch [8]: 5
- Herbicidal effects Po (pale smartweed (Po) [9]): 5
- Herbicidal effects Ci (rice flatsedge (Ci) [10]): 5
- Herbicidal effects Am (slender amaranth (Am) [11]): 5
- Phytotoxicity Go (cotton (Go)): 0
- Herbicidal effects Ab (China jute (Ab) [12]): 5
- Herbicidal effects Ch [13]: 5
- Herbicidal effects Se (green foxtail (Se) [14]): 5
- Herbicidal effects Po (pale smartweed (Po) [15]): 5
- Herbicidal effects Am (slender amaranth (Am) [16]): 5
- Phytotoxicity Tr (wheat (Tr)): 2
- Herbicidal effects Ab (China jute (Ab) [17]): 5
- Herbicidal effects Ch [18]: 5
- Herbicidal effects Se (green foxtail (Se) [19]): 5
- Herbicidal effects Po (pale smartweed (Po) [20]): 5
- Herbicidal effects Am (slender amaranth (Am) [21]): 5
- Phytotoxicity Gl (soybean (Gl)): 1
- Herbicidal effects Ab (China jute (Ab) [22]): 5
- Herbicidal effects Ch [23]: 5
- Herbicidal effects Se (green foxtail (Se) [24]): 5
- Herbicidal effects Po (pale smartweed (Po) [25]): 5
- Herbicidal effects Am (slender amaranth (Am) [26]): 5
- Phytotoxicity Ze (corn (Ze)): 2
- Herbicidal effects Ab (China jute (Ab) [27]): 5
- Herbicidal effects Ch [28]: 5
- Herbicidal effects Se (green foxtail (Se) [29]): 5
- Herbicidal effects Po (pale smartweed (Po) [30]): 5
- Herbicidal effects Am (slender amaranth (Am) [31]): 5

SMILES: COc1cc(-c2ccc(C(F)(F)F)n(C)c2=O)c(Cl)cc1Cl [Compound 1-205]
- Herbicidal effects Ec (barnyardgrass (Ec) [1]): 5
- Herbicidal effects Sc (bulrush (Sc)): 5
- Herbicidal effects Mo (monochoria (Mo)): 5
- Herbicidal effects Di (Digitaria ciliaris (Di)): 5
- Herbicidal effects Ec (barnyardgrass (Ec) [2]): 5
- Herbicidal effects Ch [3]: 5
- Herbicidal effects Po (pale smartweed (Po) [4]): 5
- Herbicidal effects Ci (rice flatsedge (Ci) [5]): 5
- Herbicidal effects Am (slender amaranth (Am) [6]): 5
- Herbicidal effects Di (Diaitaria ciliaris (Di)): 5
- Herbicidal effects Ec (barnyardgrass (Ec) [7]): 5
- Herbicidal effects Ch [8]: 5
- Herbicidal effects Po (pale smartweed (Po) [9]): 5
- Herbicidal effects Ci (rice flatsedge (Ci) [10]): 5
- Herbicidal effects Am (slender amaranth (Am) [11]): 5
- Phytotoxicity Go (cotton (Go)): 1
- Herbicidal effects Ab (China jute (Ab) [12]): 4
- Herbicidal effects Ch [13]: 5
- Herbicidal effects Se (green foxtail (Se) [14]): 5
- Herbicidal effects Po (pale smartweed (Po) [15]): 5
- Herbicidal effects Am (slender amaranth (Am) [16]): 5
- Phytotoxicity Tr (wheat (Tr)): 1
- Herbicidal effects Ab (China jute (Ab) [17]): 4
- Herbicidal effects Ch [18]: 5
- Herbicidal effects Se (green foxtail (Se) [19]): 5
- Herbicidal effects Po (pale smartweed (Po) [20]): 5
- Herbicidal effects Am (slender amaranth (Am) [21]): 5
- Phytotoxicity Gl (soybean (Gl)): 1
- Herbicidal effects Ab (China jute (Ab) [22]): 4
- Herbicidal effects Ch [23]: 5
- Herbicidal effects Se (green foxtail (Se) [24]): 5
- Herbicidal effects Po (pale smartweed (Po) [25]): 5
- Herbicidal effects Am (slender amaranth (Am) [26]): 5
- Phytotoxicity Ze (corn (Ze)): 2
- Herbicidal effects Ab (China jute (Ab) [27]): 4
- Herbicidal effects Ch [28]: 5
- Herbicidal effects Se (green foxtail (Se) [29]): 5
- Herbicidal effects Po (pale smartweed (Po) [30]): 5
- Herbicidal effects Am (slender amaranth (Am) [31]): 5

SMILES: COCCOCOc1cc(-c2ccc(C(F)(F)F)n(C)c2=O)c(F)cc1Cl [Compound 1-207]
- Herbicidal effects Ec (barnyardgrass (Ec) [1]): 5
- Herbicidal effects Sc (bulrush (Sc)): 5
- Herbicidal effects Mo (monochoria (Mo)): 5
- Herbicidal effects Di (Digitaria ciliaris (Di)): 5
- Herbicidal effects Ec (barnyardgrass (Ec) [2]): 5
- Herbicidal effects Ch [3]: 5
- Herbicidal effects Po (pale smartweed (Po) [4]): 5
- Herbicidal effects Ci (rice flatsedge (Ci) [5]): 5
- Herbicidal effects Am (slender amaranth (Am) [6]): 5
- Herbicidal effects Di (Diaitaria ciliaris (Di)): 5
- Herbicidal effects Ec (barnyardgrass (Ec) [7]): 5
- Herbicidal effects Ch [8]: 5
- Herbicidal effects Po (pale smartweed (Po) [9]): 5
- Herbicidal effects Ci (rice flatsedge (Ci) [10]): 5
- Herbicidal effects Am (slender amaranth (Am) [11]): 5
- Phytotoxicity Go (cotton (Go)): 0
- Herbicidal effects Ab (China jute (Ab) [12]): 5
- Herbicidal effects Ch [13]: 5
- Herbicidal effects Se (green foxtail (Se) [14]): 5
- Herbicidal effects Po (pale smartweed (Po) [15]): 5
- Herbicidal effects Am (slender amaranth (Am) [16]): 5
- Phytotoxicity Tr (wheat (Tr)): 1
- Herbicidal effects Ab (China jute (Ab) [17]): 5
- Herbicidal effects Ch [18]: 5
- Herbicidal effects Se (green foxtail (Se) [19]): 5
- Herbicidal effects Po (pale smartweed (Po) [20]): 5
- Herbicidal effects Am (slender amaranth (Am) [21]): 5
- Phytotoxicity Gl (soybean (Gl)): 1
- Herbicidal effects Ab (China jute (Ab) [22]): 5
- Herbicidal effects Ch [23]: 5
- Herbicidal effects Se (green foxtail (Se) [24]): 5
- Herbicidal effects Po (pale smartweed (Po) [25]): 5
- Herbicidal effects Am (slender amaranth (Am) [26]): 5
- Phytotoxicity Ze (corn (Ze)): 1
- Herbicidal effects Ab (China jute (Ab) [27]): 5
- Herbicidal effects Ch [28]: 5
- Herbicidal effects Se (green foxtail (Se) [29]): 5
- Herbicidal effects Po (pale smartweed (Po) [30]): 5
- Herbicidal effects Am (slender amaranth (Am) [31]): 5
